The structures appear in SMILES notation.

One may read the IC50 as the midpoint of a concentration-inhibition curve.

The target in assay [1] is Inosine-5'-monophosphate dehydrogenase 2 (Homo sapiens, UniProt P12268). Kind of assay: Inhibition of inosine-5'-monophosphate dehydrogenase 2. Format: single protein.
For another assay, the system named is CCRF-CEM. The assay is described as follows: Inhibition of CEM cell proliferation. Format: functional, cell-based. The following applies: Homo sapiens.

As for `CCc1cc(Nc2ncc(-c3ccccc3N(C)C(=O)CN3CCOCC3)o2)ccc1-c1cnco1`, the IC50 in assay [1] is 310 nM; in the assay on CCRF-CEM it was > 10000 nM.
Consider `COc1c(-c2cnco2)ccc(Nc2ncc(-c3ccccc3)o2)c1Cl`, for which, in assay [1], the IC50 is > 5000 nM.
`Cc1cc(Nc2ncc(-c3ccccc3N(C)C(=O)CN3CCOCC3)o2)ccc1-c1cnco1`: the IC50 in assay [1] was found to be 45 nM; with CCRF-CEM, 3000 nM.
For `CN(C(=O)CN1CCOCC1)c1ccccc1-c1cnc(Nc2ccc(-c3cnco3)c(Br)c2)o1`, the IC50 is 28 nM in assay [1] and 3200 nM with CCRF-CEM.
Consider `Cc1ncoc1-c1ccc(Nc2ncc(-c3ccccc3)o2)cc1`, for which the IC50 in assay [1] is > 5000 nM.
On the same count and under the same terms, for `Oc1cc(Nc2ncc(-c3ccccc3)o2)ccc1-c1cnco1` the value was > 1600 nM.
In the case of `COc1cc(Nc2ncc(-c3ccccc3N(C)C(=O)CO)o2)ccc1-c1cnco1`, the IC50 turned out to be 21 nM in assay [1] and 1400 nM in the assay on CCRF-CEM.
On to `COc1cc(Nc2ncc(-c3ccccc3)o2)c(Cl)cc1-c1cnco1`, for which the IC50 in assay [1] is > 1600 nM.
Regarding `CCc1cc(Nc2ncc(-c3ccccc3N(C)C(=O)CO)o2)ccc1-c1cnco1`, the IC50 in assay [1] is 100 nM; in the assay on CCRF-CEM, 4500 nM.
`CCOc1cc(Nc2ncc(-c3ccccc3)o2)ccc1-c1cnco1`: the IC50 in assay [1] is > 10000 nM.
For `Cc1cccc(NC(=O)Nc2ccc(-c3cnco3)cc2)c1`, the IC50 in assay [1] was 640 nM; in the assay on CCRF-CEM it was > 10000 nM.
As to `CNc1nc(Nc2ccc(-c3ocnc3C)cc2)nc(-c2ccccc2)n1`, in assay [1], the IC50 was > 5000 nM.
Still for that read-out and setting: for `COc1cc(Nc2ncc(-c3ccccc3)o2)ccc1-c1ncco1` the value was 190 nM.
Same read-out and setting: next, `Cc1ncoc1-c1ccc(NC(=O)/C=C/c2ccco2)cc1`: > 2000 nM.
On to `CN(C(=O)CO)c1ccccc1-c1cnc(Nc2ccc(-c3cnco3)c(Cl)c2)o1`, for which the IC50 stood at 41 nM in assay [1] and 3600 nM in the assay on CCRF-CEM.
For `Cc1cc(Nc2ncc(-c3ccccc3N(C)C(=O)CO)o2)ccc1-c1cnco1` the same measures were 100 nM and 4500 nM.
Consider `c1ccc(-c2cnc(Nc3ccc(-c4cocn4)cc3)o2)cc1`, for which the IC50 in assay [1] is > 5000 nM.
Take `COc1cc2nc(-c3ccccc3)cc(O)c2cc1-c1cocn1`: the IC50 stood at 210 nM in assay [1] and 3500 nM in the assay on CCRF-CEM.
With `CNc1nc(Nc2ccc(-c3cnco3)cc2)nc(-c2ccccc2)n1`, the IC50 in assay [1] is > 5000 nM.
Take `CN(C(=O)CO)c1ccccc1-c1cnc(Nc2ccc(-c3cnco3)c(Br)c2)o1`: the IC50 worked out at 21 nM in assay [1] and 2400 nM in the assay with CCRF-CEM.
On to `Cc1cc(Nc2ncc(-c3ccccc3)o2)ccc1-c1cocn1`, for which the IC50 in assay [1] was > 5000 nM.
The same measure, in the same setting: for `COc1cc(NC(=NC#N)Nc2ccccc2)ccc1-c1cnco1` the value was 240 nM; for `CNc1nc(Nc2ccc(-c3cnco3)c(Cl)c2)nc(-c2ccccc2)n1`, > 340 nM.
On to `COc1cc(NC(=O)Nc2cccc(C)c2)ccc1-c1cnco1`, for which the IC50 in the assay with CCRF-CEM is 2300 nM.
Take `CN(C(=O)CN1CCOCC1)c1ccccc1-c1cnc(Nc2ccc(-c3cnco3)c(Cl)c2)o1`: the IC50 worked out at 47 nM in assay [1] and 4300 nM in the assay on CCRF-CEM.
Take `Clc1cc(Nc2ncc(-c3ccccc3)o2)ccc1-c1cocn1`: the IC50 in assay [1] was > 5000 nM.
As for `COc1cc(Nc2ncc(-c3ccccc3)o2)ccc1-c1cocn1`, the IC50 in assay [1] is > 57 nM; with CCRF-CEM it was > 10000 nM.
Turning to `CC(C)(C)NC(=O)C(=O)Nc1ccc(-c2cnco2)c(Cl)c1`, the IC50 in the assay on CCRF-CEM was > 10000 nM.
For the compound `Cc1nc(C)c(-c2ccc(Nc3ncc(-c4ccccc4)o3)cc2)o1`, the IC50 in assay [1] is > 2000 nM.
The same measure, in the same setting: for `COc1cc(Nc2ncc(-c3ccccc3)o2)c(F)cc1-c1cnco1` the value was > 5000 nM.
For the compound `CC(C)(C)NC(=O)C(=O)Nc1ccc(-c2cnco2)c(Br)c1`, the IC50 with CCRF-CEM was determined as 5500 nM.
On to `c1ccc(-c2cnc(Nc3ccc(-c4cnco4)cc3)o2)cc1`, for which the IC50 in assay [1] was > 5000 nM.
In turn, `CNc1nc(Nc2ccc(-c3cnco3)c(OC)c2)nc(-c2ccccc2)n1` came in with a 50% inhibitory concentration (IC50) in the assay on CCRF-CEM of 3700 nM.
Still for that read-out and setting: for `COc1cc(Nc2ncc(-c3ccccc3)o2)ccc1-c1cnco1` the value was > 10000 nM; for `COc1cc(NC(=O)C(=O)NC(C)(C)C)ccc1-c1cnco1`, 2300 nM.
On to `COc1cc(Nc2ncc(-c3ccccc3)o2)ccc1-n1cncn1`, for which the values for the concentration for half-maximal inhibition (IC50) (in assay [1]; in the assay with CCRF-CEM) were 410 nM and 8300 nM, respectively.
Consider `Cc1ncoc1-c1ccc(NC(=O)C(=O)NC(C)(C)C)cc1`, for which the IC50 in assay [1] was > 5000 nM.
With `Cc1cccc(NC(=O)Nc2ccc(-c3cnco3)c(Cl)c2)c1`, the IC50 in assay [1] was 43 nM; in the assay on CCRF-CEM, > 10000 nM.
For `Clc1cc(Nc2ncc(-c3ccccc3)o2)ccc1-c1cnco1` the same measures were 88 nM and > 10000 nM.
For the compound `CNc1nc(Nc2ccc(-c3cocn3)c(OC)c2)nc(-c2ccccc2)n1`, the half-maximal inhibitory concentration (IC50) in assay [1] came out at 1600 nM.
On the same count and under the same terms, next, `COc1cc(Nc2ncc(-c3ccccc3)o2)ccc1-c1ocnc1C`: > 5000 nM.
Still for that read-out and setting: for `COc1cc(Nc2ncc(-c3ccccc3)o2)ccc1-c1cnc(C)o1` the value was > 2000 nM.
Consider `COc1cc(Nc2ncc(-c3ccccc3N(C)C(=O)CN3CCOCC3)o2)ccc1-c1cocn1`, for which the values for the IC50 (in assay [1]; with CCRF-CEM) were 91 nM and 9900 nM, respectively.
For the compound `CC(C)(C)NC(=O)C(=O)Nc1ccc(-c2cnco2)cc1`, the IC50 in assay [1] was > 5000 nM.
In turn, `Cc1cccc(NC(=O)Nc2ccc(-c3ocnc3C)cc2)c1` gave an IC50 in assay [1] of 500 nM.
As to `COc1cc(Nc2ncc(-c3ccccc3N(C)C(=O)CO)o2)ccc1-c1cocn1`, the IC50 in assay [1] came out at 41 nM; with CCRF-CEM, 3700 nM.

Values taken from ChEMBL document CHEMBL1145140, “Inhibitors of inosine monophosphate dehydrogenase: SARs about the N-[3-Methoxy-4-(5-oxazolyl)phenyl moiety” (Bioorg Med Chem Lett, 2003).
